Legend:
C57BL/6 mice = test: Survival in sepsis induced by cecal ligation and puncture (CLP); assay type: in vivo, mouse; conditions: 100 ng/mouse (5 μg/kg) at 6 and 16 hours after CLP; FIG. 8
Experimental: C57BL/6 mice aged 7-8 weeks were purchased from Jabio (Suwon, Gyeonggi-do) and sepsis was induced by cecal ligation and puncture (CLP).
Specifically, after anesthesia using 150 mg/kg of ketamine and 17.5 mg/kg of rompun, an abdominal incision of 1-2 cm was made to expose the cecum to induce sepsis. The cecum was ligated with 6-0 silk sutures at the distal end of the ileocecal valve, and a puncture was made with an 18-gauge needle. The perforated cecum was gently squeezed to push out 1-2 cm of feces, and the cecum was then retracted back into the abdominal cavity. The abdomen was then closed and pre-warmed normal saline (2.5 mL/100 g body weight) was injected into the mouse abdominal cavity immediately after the procedure. 6 and 16 hours after CLP treatment, the compound of formula (1a-1) was dissolved in phosphate buffered saline (PBS) and injected intravenously at 100 ng/mouse (5 μg/kg), and survival was examined for 10 days. […] In addition, as a drug-negative control, survival was examined in mice that received only PBS after CLP treatment.
For comparison, we also examined the survival of a control group treated with fingolimod (FTY720), a known S1P modulator, instead of the compound of formula (1a-1) under the same conditions.

SIRT1 = conditions: known value; read-out: EC50 as SIRT1 activator; cited from earlier work
[1] = system: tyrosine hydroxylase (TH); test: Tyrosine hydroxylase expression in differentiated SH-SY5Y dopaminergic neurons by western blot; assay type: cell-based, human; conditions: differentiated dopaminergic neurons treated with rotenone (RT); FIG. 6
Experimental: (§1) To analyze the effect on the expression of tyrosine hydroxylase (TH) and α-synuclein as neuron-specific proteins, western blot was performed.
(§2) SH-SY5Y cell line was treated with retinoic acid and 12-O-tetradecanoylphorbol-13-acetate (TPA) to induce differentiation into TH-secreting neurons for 6 days.
(§3) Differentiated dopaminergic neurons were lysed in PRO-PREP (Intronbio), a cell lysis solution containing protease inhibitor cocktail (Gendepot), and electrophoresed in 10% SDS polyacrylamide gels at 20 μg/well. Transfer was performed using PVDF (Merck millipore) as a membrane, and tyrosine hydroxylase antibody, «-synuclein antibody (Cell signaling), and β-actin antibody (Santa Cruz) were used for reaction for more than 2 hours. Protein expression was detected by staining with ECL substrate (Biorad) for development and graphed using the image J program.

α-synuclein = α-synuclein expression in differentiated SH-SY5Y dopaminergic neurons by western blot; assay type: cell-based, human; conditions: differentiated dopaminergic neurons treated with rotenone (RT); FIG. 6
Experimental: as §1, §2, §3

CCCCCCCCc1ccc(CCC(N)(CO)CO)cc1 [FTY720, fingolimod, reference compound]
survival (C57BL/6 mice): did not improve survival

C=C(C)[C@H]1Cc2c(ccc3c2O[C@@H]2COc4cc(OC)c(OC)cc4[C@@H]2C3=O)O1 [rotenone, reference compound]
expression of TH [1]: the expression of TH is decreased
expression of α-synuclein (α-synuclein): the expression of α-synuclein is increased

From patent US20260365684A1, “PHYTOSPHINGOSINE-3,4-CYCLICPHOSPHATE COMPOUND AND PHARMACEUTICAL COMPOSITION COMPRISING THE SAME” (AXCESO BIOPHARMA CO., LTD., priority 2022, published 2026)
